Source: patent US20110178100A1, “APOPTOSIS INHIBITOR” (NIHON UNIVERSITY, priority 2008, published 2011)
Entries after “also recorded” stand apart in the source; their conditions may differ.

Tests used:
[1] = system: HT22 cells; assay: Intracellular reactive oxygen species (ROS) assay with H2DCFDA after hypoxia-reoxygenation loading; format: cell-based; details: 3 μM, added immediately before reoxygenation, hypoxia 18 h, reoxygenation 3 h
Procedure: (§1) HT22 cells were cultured in DMEM containing 10% FBS in a 10% CO2 incubator at 37° C.
(§2) Hypoxia loading was performed by using an oxygen absorber/CO2 generator AnaeroPack Kenki For Cell™, and reoxygenation was performed by restoring the condition to normoxia.
Intracellular ROS levels were measured by using H2DCFDA. Cells were treated as intended and then treated with 5 μM H2DCFDA. After 15 minutes, the cells were observed under a fluorescence microscope (480 nm/526 nm).
Time-dependent change of ROS was examined during reoxygenation for 12 hours after hypoxia for 18 hours (H18). Cells placed under normoxia for the same hours (N30) were used as a control. GR103691 was added at a concentration of 3 μM immediately before reoxygenation (or after 18-hour culture to the control cells).

[2] = system: HT22 cells; assay: Glutamic acid-induced cell death, MTT assay; format: cell-based; details: MTT 24 hours after glutamic acid, added immediately before glutamic acid
Procedure: (§3) HT22 cells were cultured in DMEM containing 10% FBS in a 10% CO2 incubator at 37° C. MTT assay was conducted according to a ordinary method by using cells treated as intended as a sample. Specifically, the cells were cultured in a 96-well assay plate and treated as intended. Then, 10 μL of an MTT solution was added to each well, followed by incubation for 4 hours. 100 μL of a reaction stop solution was added thereto. The plate was left overnight, and the absorbance (measurement wavelength: 570 nm, control wavelength: 655 nm) was then measured using a microplate reader. The results are indicated relative to the absorbance of control cells defined as 100%. In this context, the MTT value is a value that indicates mitochondrial reductive capacity. This value correlates with cell viability in many cases and is therefore used as an index of cell viability. It has been confirmed as to the glutamic acid-induced cell death of HT22 cells that the results of MTT assay correlate with cell viability. MTT assay was conducted 24 hours after addition of glutamic acid. GR103691 was added immediately before the addition of glutamic acid (Glu).

[3] = system: HT22 cells; assay: Tunicamycin-induced cell death, MTT assay; format: cell-based; details: MTT 24 hours after tunicamycin, added immediately before tunicamycin
Procedure: as §3, with “tunicamycin (TM).” for “glutamic acid.”, “tunicamycin (TM).” for “glutamic acid (Glu).”

[4] = system: HT22 cells; assay: Hypoxia/reoxygenation-induced cell death, LDH release assay; format: cell-based
Procedure: as §1, §2
LDH assay was conducted using a supernatant of a medium of cells treated as intended as a sample and a measurement kit (LDH cytotoxic test).
Specifically, the cells were cultured in a 96-well assay plate and treated as intended. Then, 50 μL of only the medium was collected and transferred to a newly prepared plate. A coloring reagent was added to each well. After incubation for 20 minutes, 100 μL of a reaction stop solution was added thereto, and the absorbance at 570 nm was measured using a microplate reader. The results are indicated relative to the absorbance of control cells defined as 100%.
LDH release was measured after hypoxia for 18 hours (H18) and subsequent reoxygenation for 24 hours (R24). Cells placed under normoxia for 42 (18+24) hours (N42) were used as a control. GR103691 was added immediately before reoxygenation (or after 18-hour culture to the control cells).
LDH release was measured after hypoxia for 18 hours (H18) and subsequent reoxygenation for 24 hours (R24). Cells placed under normoxia for 42 (18+24) hours (N42) were used as a control. Nafadotride was added immediately before reoxygenation (or after 18-hour culture for the control cells).

[5] = system: hippocampal CA1 region; assay: Mouse cerebral ischemia/reperfusion model, FJB and ssDNA staining of hippocampal CA1 region; format: in vivo, C57BL/6J mice; details: 72 hours after reperfusion
Procedure: Male C57BL/6J mice (9-12 week old) were used. After halothane anesthesia, the left and right common carotid arteries were ligated for 17 minutes while the cerebral blood flow was monitored. Then, the blood flow was resumed to prepare a cerebral ischemia/reperfusion model. Paraffin sections of the brain were prepared 72 hours after reperfusion according to an ordinary method and immunostained with Fluoro Jade B (FJB) that stains dead cells green or with single-stranded DNA (ssDNA) that permits detection of apoptosis cells by the staining of nuclear fragmentation. The cells were observed under a microscope. GR103691 was administered at a dose of 1, 3, or 10 mg/kg from the tail vein of each mouse within 10 minutes after reperfusion. Moreover, for comparison, edaravone (manufactured by CALBIOCHEM) used for improving neurological symptoms, problems with movement of daily living, and dysfunction at the acute stage of brain infarction was administered at a dose of 3 or 10 mg/kg to each mouse. A saline-administered group and a sham group without only ischemia treatment were observed as controls.
In FIG. 7, the bright green color represents apoptosis cells. Moreover, the number of FJB-positive cells was counted to determine its proportion to the total number of cells (FIG. 8). The results of each group are indicated as mean±standard error.

[6] = HT22 cells, added immediately before reoxygenation
[7] = HT22 cells, hypoxia 18 h, reoxygenation 24 h, added immediately before reoxygenation
[8] = 10 mg/kg from the tail vein within 10 minutes after reperfusion
[9] = 1, 3, or 10 mg/kg from the tail vein within 10 minutes after reperfusion

SMILES | transient increase of ROS in H18/R3-treated cells (H2DCFDA-positive cells) [1] | reduction of MTT value caused by glutamic acid (glutamic acid-induced cell death) [2] | reduction of MTT value caused by TM (tunicamycin-induced cell death) [3] | LDH release of the control cells ([4]; HT22 cells under normoxia 42 h (N42), added after 18-hour culture) | increase of LDH release caused by H18/R24 [4, 6] | LDH release of H18/R24-treated cells (hypoxia/reoxygenation-induced cell death) [4, 7] | concentration at which the reduction of LDH release of H18/R24-treated cells was significant [4, 7] | cell death in the hippocampal CA1 region (FJB-positive cells) [5, 8] | ssDNA-positive cells in the hippocampal CA1 region [5, 8] | cell death in the hippocampal CA1 region (FJB-positive cells) [5, 9] | ssDNA-positive cells in the hippocampal CA1 region [5, 9] | decreasing effect on ssDNA-positive cells in the hippocampal CA1 region, compared with GR103691 ([5]; edaravone 3 or 10 mg/kg) | inhibitory effect on cell death in the hippocampal CA1 region (FJB-positive cells), compared with GR103691 ([5]; edaravone 3 or 10 mg/kg)
COc1ccccc1N1CCN(CCCCNC(=O)c2ccc(-c3ccc(C(C)=O)cc3)cc2)CC1 [GR103691, 4′-acetyl-N-[4-[4-(2-methoxyphenyl)-1-piperazinyl]butyl]-[1,1′-biphenyl]-4-carboxamide] | inhibited | significantly recovered the reduction of MTT value | did not influence the reduction of MTT value | not influenced | almost the maximum effect | reduced the LDH release of the H18/R24-treated cells in a concentration-dependent manner | ≥ 1 µM | significantly inhibited | significantly decreased | inhibited such cell death in a dose-dependent manner | decreased by GR103691 in a dose-dependent manner |  | 
CC1=NN(c2ccccc2)C(=O)C1 [edaravone, reference compound] |  |  |  |  |  |  |  |  |  |  |  | almost the same level | almost the same level
CCCCN1CCCC1CNC(=O)c1cc(C#N)c2ccccc2c1OC (centres unmarked) [nafadotride, reference compound] |  |  |  |  | did not inhibit apoptosis; also recorded: did not influence increase of LDH release |  |  |  |  |  |  |  | 
